Test results published in patent US9271952B2, “Compositions and methods for treating nephropathy” (Complexa, Inc., priority 2011, dated 2016).

Experiments:
B6129S2/J mice = assay: Cisplatin-induced renal injury in mice, posttreatment with OA-NO2; type: in vivo
Description: The control group also received an i.p. injection of the equivalent amount of ethanol at the same frequencies. At the end of the experiments, under isoflurane anesthesia, blood was withdrawn from the vena cava using 1 cc insulin syringe and kidneys were harvested for analysis of morphology and gene expression.

[1] = test system: human proximal tubular cells (HK2); assay: Cisplatin-induced caspase activity in cultured human proximal tubular cells (HK2); type: cell-based
[2] = cisplatin-treated mice, OA-NO2 400 mg/kg i.p. at 6-hour intervals for 48 hours
[3] = cisplatin 20 mg/kg i.p. alone, mice

9- or 10-nitro octadecenoic acid [OA-NO2]
MPO plasma level (marker of neutrophil infiltration) (B6129S2/J mice; [2]): attenuated or completely corrected | activity of caspase (index of apoptosis) (B6129S2/J mice; [2]): attenuated or completely corrected | kidney expression of NADPH oxidase subunits p47phox and gp91phox (B6129S2/J mice; [2]): attenuated or completely corrected | kidney thiobarbituric acid-reactive substances (TBARS, index of oxidative stress) (B6129S2/J mice; [2]): attenuated or completely corrected | renal histological abnormalities (distortion of renal morphology, dilation of renal tubules, protein cast; pathological changes) (B6129S2/J mice; mice given cisplatin 20 mg/kg i.p., OA-NO2 400 mg/kg i.p. at 6-hour intervals for 48 hours): markedly attenuated | renal dysfunction as indicated by a rise in plasma BUN (functional changes) (B6129S2/J mice; mice given cisplatin 20 mg/kg i.p., OA-NO2 400 mg/kg i.p. from 20 minutes after, at 6-hour intervals for 48 hours): markedly attenuated | cisplatin-induced caspase activity ([1]; HK2 cells exposed to 1.0 μM cisplatin, with OA-NO2): almost completely normalized

N.N.[Cl][Pt][Cl] [cisplatin, reference compound]
activity of caspase (B6129S2/J mice; [3]): increased | kidney TBARS (B6129S2/J mice; [3]): increased | kidney expression of NADPH oxidase subunits p47phox and gp91phox (B6129S2/J mice; [3]): increased | increase in caspase activity ([1]; HK2 cells, exposure to 1.0 μM cisplatin): 3 fold
